In article PMC4390470 (Investigational new drugs, 2015):
Where two headings read alike, the source gives them in different places.

How the values were obtained:
[1] = test system: metastatic castration-resistant prostate cancer (mCRPC); conditions: cited from earlier work
[2] = in vivo
[3] = in vivo; remark: listed apart in the source
[4] = human, in vivo, 28 days

Which “Median OS” value ([1]; chemotherapy-naïve mCRPC, versus placebo 27.2, ref [16]) does the source give for CC(=O)O[C@H]1CC[C@@]2(C)C(=CC[C@@H]3[C@@H]2CC[C@]2(C)C(c4cccnc4)=CC[C@@H]32)C1 [Abiraterone acetate] here?
Its value is “not reached”.

And the “Median OS” value ([1]; mCRPC following docetaxel therapy, versus placebo 11.2, ref [15])?
The value was 15.8 months.

Which results are given for CC(=O)O[C@@]12CO[C@@H]1C[C@H](O)[C@@]1(C)C(=O)[C@H](O)C3=C(C)[C@@H](OC(=O)[C@H](O)[C@@H](NC(=O)OC(C)(C)C)c4ccccc4)C[C@@](O)([C@@H](OC(=O)c4ccccc4)[C@H]21)C3(C)C [docetaxel]?
Tmax (human, plasma, other: orteronel oral (PO), docetaxel intravenous infusion): ~1 h; Mean plasma concentration-time profile, alone versus in combination (phase 2, orteronel with/without docetaxel and docetaxel with/without orteronel): similar; AUC0-tau and Cmax, alone versus in combination (phase 2, orteronel with/without docetaxel and vice versa): similar

Which “Median OS” value ([1]; chemotherapy-naïve mCRPC, versus placebo 31.0, ref [14]) does the source give for CNC(=O)c1ccc(N2C(=S)N(c3ccc(C#N)c(C(F)(F)F)c3)C(=O)C2(C)C)cc1F [enzalutamide] here?
The value was “not reached”.

What about the “Median OS” value ([1]; mCRPC following docetaxel therapy, versus placebo 13.6, ref [17]) of the same compound?
The value was 18.4 months.

What does the source list for CNC(=O)c1ccc2cc([C@@]3(O)CCn4cncc43)ccc2c1 [orteronel]?
Cardiovascular profile [2]: acceptable cardiovascular profile; AUC0-tau and Cmax, alone versus in combination [3]: similar; Mean plasma concentration-time profile, alone versus in combination [3]: similar; Recommended phase 2 dose (RP2D) of orteronel in combination with DP [4]: 400 mg BID
